Data from patent US9616019B2, “Nanosuspension of a poorly soluble drug via microfluidization process” (Celgene Corporation, priority 2009, dated 2017).

Experiment: Particle size distribution by laser diffraction particle size analyzer
Type: physicochemical
Description: The particle size distribution of the resultant suspensions can be measured using any instrumentation. An example is laser diffraction using a Cilas Particle Size Analyser 1190. The images of the particles can be taken using, for example, the microscope “Olympus”. The resolution rates can be determined, for example, by a pION μDISS Profiler.
An aqueous dispersion of cyclopropyl-N-{2-[(1S)-1-(3-ethoxy-4-methoxyphenyl)-2-(methylsulfonyl)ethyl]-3-oxoisoindoline-4-yl}carboxamide up to 200 mg/ml in 0.5% HPMC E5 were able to be processed through the Microfluidizer processor. […] By processing at 27K psi for 100 passes, the mean particle size by volume was reduced from 8.0 μm to 0.39 μm, while by processing at 15K psi, the mean size was 0.91 μm. The D90 of particle size by number was 0.09 μm.
Nanosuspensions were formed by initially stirring the micronized cyclopropyl-N-{2-[(1S)-1-(3-ethoxy-4-methoxyphenyl)-2-(methylsulfonyl)ethyl]-3-oxoisoindoline-4-yl}carboxamide in aqueous excipient solutions including PVP, CMC, HPMC, PEG, PEO, Transcutol, glycerin, and/or various surfactants for wetting and solubilization, followed by passing through a high-shear microfluidizer processor. The particle size distribution of the resultant suspensions was measured by a laser diffraction particle size analyzer. The images of the particles were taken using a microscope.
Aqueous dispersions of cyclopropyl-N-{2-[(1S)-1-(3-ethoxy-4-methoxyphenyl)-2-(methylsulfonyl)ethyl]-3-oxoisoindoline-4-yl}carboxamide up to 200 mg/ml in polymeric excipients were processed with this approach. The 200 mg/mL nanosuspension was physically stable at room temperature for 2 months, based on the images and particle size analysis. The D90 of particle size by number was 0.09 μm. […] Upon dilution from 200 mg/ml to 25 mg/ml with specific surfactants, the solubility increased 40 fold over 40 minutes.

CCOc1cc([C@@H](CS(C)(=O)=O)N2Cc3cccc(NC(=O)C4CC4)c3C2=O)ccc1OC [cyclopropyl-N-{2-[(1S)-1-(3-ethoxy-4-methoxyphenyl)-2-(methylsulfonyl)ethyl]-3-oxoisoindoline-4-yl}carboxamide]
D90 of particle size by number: 0.09 μm
mean particle size by volume (before microfluidization): 8.0 μm
mean particle size (optimal process pressure and time): 0.05 μm
mean particle size by volume (processing at 15K psi): 0.91 μm
mean particle size (processing at 15K psi (Example 4)): 0.08 μm
mean particle size by volume (processing at 27K psi for 100 passes, 0.5% HPMC E5): 0.39 μm
mean particle size (processing at 27K psi for 130 passes): 0.05 µm
